Data reported in patent publication US12275995B2, “Lysinibacillus sphaericus and aspirin chemoprevention of colorectal cancer” (priority 2019, dated 2025).

Tested on: Lysinibacillus sphaericus
Assay: In vitro incubation of L. sphaericus with antibiotics (cell growth)
Type: cell-based
Conditions: in vitro incubation with single antibiotics of the cocktail

CC1(C)S[C@@H]2[C@H](NC(=O)[C@H](N)c3ccccc3)C(=O)N2[C@H]1C(=O)O [ampicillin]
growth of L. sphaericus: inhibiting the growth
